# Laboratory results reported in patent publication US11535670B2, “Combination therapies of HDAC inhibitors and PD-L1 inhibitors” (HUYABIO International, LLC, priority 2016, dated 2022).
# What was measured:
# HDAC 11 = molecular target: T1, HDAC 11 (Homo sapiens, UniProt Q96DB2); settings: cited from earlier work
# T1 sequence (Q96DB2 1-347): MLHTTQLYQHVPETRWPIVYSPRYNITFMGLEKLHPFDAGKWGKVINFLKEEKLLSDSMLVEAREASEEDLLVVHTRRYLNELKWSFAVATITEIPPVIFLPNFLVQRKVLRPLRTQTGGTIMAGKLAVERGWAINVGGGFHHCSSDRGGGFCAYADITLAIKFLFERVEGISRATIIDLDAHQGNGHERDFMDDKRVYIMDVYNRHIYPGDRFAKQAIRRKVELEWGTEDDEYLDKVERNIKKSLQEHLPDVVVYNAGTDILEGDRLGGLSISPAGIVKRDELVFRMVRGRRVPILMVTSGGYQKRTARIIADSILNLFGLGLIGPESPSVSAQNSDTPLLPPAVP
# [1] = system: MC38 murine colon carcinoma; test: Example 3: second-line therapy of MC38 tumors progressing after first-line PD-1 inhibitor antibody, response rates; assay type: in vivo, C57BL/6 mice; settings: second-line after failing PD-1 inhibitor antibody; HBI-8000 50 mg/kg p.o. qd×21; antibodies 5 mg/kg i.p. biwk×2 (Table 4: biwk × 3)
# Description: In this model, a proportion of the animals treated 1st line with the PD-1 checkpoint inhibitor antibody experience complete tumor regression. However, a similar proportion of animals treated 1st line with the PD-1 inhibitor antibody experience rapid tumor progression. The balance of the animals treated in this way experience slow tumor progression or stable disease, which is a result which approximates the situation in a number of human cancer patients receiving PD-1 inhibitor antibody therapy, i.e., they experience a transient partial response, including stable disease, but then develop resistance and rapidly progress, failing PD-1 inhibitor antibody therapy. In this example, the efficacy of HBI-8000 (DZ1) as a second-line therapy, alone and in combination with PDL-1 inhibitor antibody 10F.9G2 (anti-PDL-1), was evaluated for the ability to cause tumor growth delay (TGD) in animals which tumors progressed following PD-1 inhibitor antibody first line of therapy in the MC38 murine colon carcinoma syngeneic model in immunocompetent C57BL/6 mice.
# Female C57BL/6 mice bearing subcutaneous MC38 tumors (mean tumor volume: 114 mm^3 when treatment began) were treated with a first line of therapy of PD-1 inhibitor antibody treatment, administered intraperitoneally (i.p.) at 5 mg/kg, twice weekly for two weeks (biwk×2). […] Dosing began on Dl, which represented the day of recruitment and varied among mice (this was normalized for each group). The second line therapies were as follows. Vehicle was administered orally (p.o.). HBI-8000 was administered p.o. at 50 mg/kg. PD-1 inhibitor antibody and anti-PDL-1 were each administered intraperitoneally (i.p) at 5 mg/kg. Group 1 mice served as controls and received 0.2% carboxymethyl cellulose: 0.1% Tween 80 in deionized water (vehicle) once daily for twenty-one days (qd×21). Group 2 received HBI-8000 qd×21. Group 3 received a second course of PD-1 inhibitor antibody biwk×2. Group 4 received HBI-8000 qd×21 and PD-1 inhibitor antibody biwk×2. Group 5 received anti-PDL-1 biwk×2. Group 6 received HBI-8000 qd×21 and anti-PDL-1 biwk×2. […]
smiles,measurement,setting,value
"Nc1cc(F)ccc1NC(=O)c1ccc(CNC(=O)/C=C/c2cccnc2)cc1 [HBI-8000, N-(2-amino-4-fluorophenyl)-4-[[[(2E)-1-oxo-3-(3-pyridinyl)-2-propen-1-yl]amino]methyl]benzamide]",activity at HDAC 11,HDAC 11,has activity
same,activity at HDAC 11 compared with Entinostat,HDAC 11; versus Entinostat,more active than Entinostat
same,Response rate: CR (complete response),[1],20%
same,Response rate: NR (no response),[1],40%
same,Response rate: PR (partial response),[1],40%
